{"source": "paper PMC8765048", "about": "(JCI Insight, 2022)", "key": {"[1]": {"test_system": "SARS-CoV-2 B.1.1.7 (Alpha)", "assay": "microbe, parasite or virus in culture", "format": "cell-based"}, "[2]": {"test_system": "SARS-CoV-2 WA1", "assay": "microbe, parasite or virus in culture", "format": "cell-based"}, "[3]": {"test_system": "Huh-7 cells", "assay": "Acute mitochondrial or glycolytic stress assay (Seahorse XF96e)", "format": "cell-based, human", "text": "Other important measures of cell viability are mitochondrial integrity, function, cardiotoxicity, and genotoxicity, since other nucleoside analogs may vary in their effect on these endpoints ([29], [30]). Dyes commonly used to assess mitochondrial integrity are MitoTracker Green (MTG), a mitochondrial stain mostly localized to mitochondria based on hydrophobicity, and N-alkyl acridine orange (NAO), which binds to mitochondrial cardiolipin. Untreated Huh-7 cells and Huh-7 cells treated for 5 days with 100 nM sangivamycin were stained with MTG and NAO and imaged by fluorescence microscopy. […] To more quantitatively assess the impact of sangivamycin on mitochondrial integrity, we evaluated the effect of sangivamycin on mitochondrial metabolic function as well as cytoplasmic glycolytic function. The XF96e Seahorse instrument was used to quantify the oxygen consumption rate (OCR) over time in untreated control and sangivamycin-treated Huh-7 cells. […] Standard metabolic endpoints quantified with or without sangivamycin included sequential treatment and washout of cell cultures with oligomycin (ATP synthase inhibitor), carbonyl cyanide 4-(trifluoromethoxy)phenylhydrazone (FCCP; a proton gradient uncoupler), and antimycin A + rotenone (complex I and III blockers) (Supplemental Figure 7). […]"}, "[4]": {"assay": "Turbidimetric aqueous solubility screening", "format": "physicochemical", "settings": "PBS, pH 7.4, PBS pH 7.4, 2 hours at 37°C, high test concentration 500 μM", "experimental": "Aqueous solubility of sangivamycin was measured using a high-throughput turbidimetric assay performed by Cyprotex. Initially, sangivamycin stock DMSO solution was diluted in DMSO to produce a range of concentrations. These dilutions were added to PBS at pH 7.4 (high test concentration 500 μM) and incubated for 2 hours at 37°C. At the end of the incubation period, the absorbance at 620 nm was measured for each concentration for 2 replicates to determine turbidity from precipitate formation."}, "[5]": {"assay": "Metabolic stability testing, liver microsomes", "format": "in vitro ADME", "settings": "pH 7.4, 0.5 mg/mL microsomes, NADPH", "experimental": "To evaluate metabolic stability, sangivamycin was incubated by Cyprotex in duplicate with active and heat-inactivated human and CD-1 laboratory mouse liver microsomes (0.5 mg/mL) and cofactors (2.5 mM NADPH and 3.3 mM MgCl2) in 0.1 M phosphate buffer (pH 7.4) at 37°C. Aliquots were removed at 0, 15, 30, 60, 90, and 120 minutes, and the amount of drug remaining at each time point was determined by LC-MS/MS."}, "[6]": {"assay": "24-hour plasma pharmacokinetics in CD-1 laboratory mice", "format": "in vivo, mouse", "settings": "for apparent volume of distribution / total clearance / area under the curve to the last time point / Cmax: CD-1 mice, i.p. 60 mg/kg; for area under the curve to the last time point: 24 h; for Cmax: mouse, plasma, ip", "experimental": "We next evaluated the 24-hour pharmacokinetics (PK) of sangivamycin in CD-1 laboratory mouse plasma. Sangivamycin’s plasma concentrations increased following i.p. injection of 60 mg/kg to a peak at 2 hours, then decreased over 6 or 8 hours, and remained virtually unchanged up to 24 hours after dosing. […] Graphing plasma concentration versus time produced an area under the curve to the last time point with values of 632 ± 66.6 h•ng/mL for males and 833 ± 53.9 h•ng/mL for females. […] Our data corroborate historical PK studies in mice with ^3H-labeled sangivamycin performed at the NCI in 1974 ([20]). In these studies, free nucleoside and mono-, di-, and triphosphate forms of sangivamycin were detected in blood, urine, and multiple tissues (e.g., heart, liver, brain, spleen, and kidneys) following i.p. injection of 8 mg/kg. The studies established that sangivamycin was phosphorylated after transportation into cells. In liver, heart, and brain, the predominant form of sangivamycin was sangivamycin 5′-monophosphate (SMP). […] Therefore, we determined the level of SMP in blood in our PK study using a published liquid chromatography–tandem mass spectrometry (LC-MS/MS) method with a lower limit of quantification of 1 ng/mL ([33]). Using this method, we detected SMP in the plasma of dosed mice but not control mice (Supplemental Figure 9B). The apparent levels of SMP increased in blood during the 24 hours of this study. There also was possible presence of a diphosphate metabolite of sangivamycin, but it was detected only in the plasma samples taken 24 hours after dosing."}, "[7]": {"test_system": "Ebola virus RNA-directed RNA polymerase (RdRp) activity", "settings": "in vitro; cited from earlier work"}, "[8]": {"settings": "Severe acute respiratory syndrome coronavirus 2, Vero C1008, 24 h"}, "[9]": {"settings": "Severe acute respiratory syndrome coronavirus 2, Calu-3, 72 h"}}, "note": "Where two headings read alike, the source gives them in different places.", "data": [{"smiles": "NC(=O)c1cn([C@@H]2O[C@H](CO)[C@@H](O)[C@H]2O)c2ncnc(N)c12", "note": "[Sangivamycin, sangivamycin]", "values": [{"measurement": "SI (selectivity index, CC50/IC50)", "setting": "[1]; B.1.1.7 (Alpha), Vero E6 cells", "value": ">39.0"}, {"measurement": "IC50", "setting": "[1]; [8]", "value": 15.4, "unit": "nM"}, {"measurement": "IC90", "setting": "[1]; [8]", "value": 164, "unit": "nM"}, {"measurement": "IC50", "setting": "[2]; [9]", "value": "61 ± 8", "unit": "nM"}, {"measurement": "IC90", "setting": "[2]; [9]", "value": "190 ± 23", "unit": "nM"}, {"measurement": "SI (selectivity index, CC50/IC50)", "setting": "[2]; WA1, Calu-3 cells", "value": 5.3}, {"measurement": "Acute effects on mitochondrial and glycolytic stress (Seahorse measurements)", "setting": "[3]; 0.05–5 μM", "value": ">5", "unit": "µM"}, {"measurement": "oxygen consumption rate (OCR) relative to untreated control cells", "setting": "[3]; up to 5 μM", "value": "did not significantly change the OCR"}, {"measurement": "solubility at 2 h", "setting": "[4]", "value": "≥ 500", "unit": "µM"}, {"measurement": "remaining at 2 h, 5 μM", "setting": "[5]; CD-1, mouse, read-out: Mouse liver microsome stability (% remaining at 120 min)", "value": 100, "unit": "%"}, {"measurement": "remaining at 2 h, 5 μM", "setting": "[5]; human, read-out: Human liver microsome stability (% remaining at 120 min)", "value": 100, "unit": "%"}, {"measurement": "apparent volume of distribution", "setting": "[6]; females", "value": "167,000 mL/kg"}, {"measurement": "total clearance", "setting": "[6]; females", "value": "68,500 mL/h/kg"}, {"measurement": "area under the curve to the last time point", "setting": "[6]; females", "value": "833 ± 53.9", "unit": "ng·h/mL"}, {"measurement": "apparent volume of distribution", "setting": "[6]; males", "value": "369,000 mL/kg"}, {"measurement": "total clearance", "setting": "[6]; males", "value": "85,400 mL/h/kg"}, {"measurement": "area under the curve to the last time point", "setting": "[6]; males", "value": "632 ± 66.6", "unit": "ng·h/mL"}, {"measurement": "Cmax", "setting": "[6]; female, females (285 ng/mL), read-out: Cmax, molar equivalent", "value": 922, "unit": "nM"}, {"measurement": "Cmax", "setting": "[6]; female, females, read-out: Cmax of the plasma", "value": "285 ± 35.9", "unit": "ng/mL"}, {"measurement": "Cmax", "setting": "[6]; male, males (97.3 ng/mL), read-out: Cmax, molar equivalent", "value": 314, "unit": "nM"}, {"measurement": "Cmax", "setting": "[6]; male, males, read-out: Cmax of the plasma", "value": "97.3 ± 31", "unit": "ng/mL"}, {"measurement": "Cmax relative to the average IC90 in the 3 cell lines tested", "setting": "[6]; mouse plasma Cmax 314 nM and 922 nM", "value": "3- to 9 fold"}, {"measurement": "effect of remdesivir and sangivamycin combined", "setting": "[7]", "value": "additive effect"}]}]}
